In ChEMBL document CHEMBL1201861, “Genomics of Drug Sensitity in Cancer screening data, Wellcome Trust Sanger Institute”:

system: SF-268; test: cells; assay type: functional, cell-based, Homo sapiens; conditions: Homo sapiens, SF-268;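 further: growth inhibition of SF-268 cells determined with a cell viability assay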
Description: SANGER: Inhibition of human SF268 cell growth in a cell viability assay.

Question: With COc1ccc(-c2cc3nccn3c(Nc3ncccc3C(N)=O)n2)cc1OC as the molecule, how does the IC50 read?
Answer: The IC50 was 2.83 µM.

system: D283 Med; test: cells; assay type: functional, cell-based, Homo sapiens; conditions: Homo sapiens, D283 Med
Description: SANGER: Inhibition of human D-283MED cell growth in a cell viability assay.

Question: How did the IC50 turn out when COc1ccc(-c2cc3nccn3c(Nc3ncccc3C(N)=O)n2)cc1OC was run?
Answer: The IC50 was greater than 8 µM.

system: SK-NEP-1; test: cells; assay type: functional, cell-based, Homo sapiens; conditions: Homo sapiens, SK-NEP-1;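 further: growth inhibition of human SK-NEP-1 cells, read out by a cell viability assay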
Description: SANGER: Inhibition of human SK-NEP-1 cell growth in a cell viability assay.

Question: How did the IC50 turn out when COc1ccc(-c2cc3nccn3c(Nc3ncccc3C(N)=O)n2)cc1OC was run?
Answer: Its IC50 is 4.53 µM.

system: NCI-H1838; test: cells; assay type: functional, cell-based, Homo sapiens; conditions: Homo sapiens, NCI-H1838;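 further: growth inhibition of NCI-H1838 cells, determined with a cell viability readout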
Description: SANGER: Inhibition of human NCI-H1838 cell growth in a cell viability assay.

Question: How did the IC50 turn out when COc1ccc(-c2cc3nccn3c(Nc3ncccc3C(N)=O)n2)cc1OC was run?
Answer: Its IC50 is greater than 8 µM.

system: COLO-320-HSR; test: cells; assay type: functional, cell-based, Homo sapiens; conditions: Homo sapiens, COLO-320-HSR;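 further: growth inhibition of COLO-320-HSR cells, determined with a cell viability assay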
Description: SANGER: Inhibition of human COLO-320-HSR cell growth in a cell viability assay.

Question: COc1ccc(-c2cc3nccn3c(Nc3ncccc3C(N)=O)n2)cc1OC was tested. Which IC50 did it give?
Answer: Its IC50 is 2.9 µM.

system: KNS-42; test: cells; assay type: functional, cell-based; conditions: Homo sapiens;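 further: growth inhibition of KNS-42 cells, read out with a cell viability assay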
Description: SANGER: Inhibition of human KNS-42 cell growth in a cell viability assay.

Question: With COc1ccc(-c2cc3nccn3c(Nc3ncccc3C(N)=O)n2)cc1OC as the molecule, how does the IC50 read?
Answer: Its IC50 is greater than 8 µM.

system: EW-18; test: cells; assay type: functional, cell-based, Homo sapiens; conditions: Homo sapiens, EW-18; read-out: IC50;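 further: growth inhibition of EW-18 cells, read out by a cell viability assay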
Description: SANGER: Inhibition of human EW-18 cell growth in a cell viability assay.

Question: With COc1ccc(-c2cc3nccn3c(Nc3ncccc3C(N)=O)n2)cc1OC as the molecule, how does the IC50 read?
Answer: Its IC50 is 4.58 µM.

system: SCH; test: cells; assay type: functional, cell-based, Homo sapiens; conditions: Homo sapiens, SCH;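 further: growth inhibition of human SCH cells, read out in a cell viability assay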
Description: SANGER: Inhibition of human SCH cell growth in a cell viability assay.

Question: COc1ccc(-c2cc3nccn3c(Nc3ncccc3C(N)=O)n2)cc1OC was tested. Which IC50 did it give?
Answer: Its IC50 is greater than 8 µM.

system: KINGS-1; test: cells; assay type: functional, cell-based, Homo sapiens; conditions: Homo sapiens, KINGS-1;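 further: cell viability assay measuring suppression of KINGS-1 cell growth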
Description: SANGER: Inhibition of human KINGS-1 cell growth in a cell viability assay.

Question: COc1ccc(-c2cc3nccn3c(Nc3ncccc3C(N)=O)n2)cc1OC was tested. Which IC50 did it give?
Answer: The IC50 was greater than 8 µM.

system: GCIY; test: cells; assay type: functional, cell-based, Homo sapiens; conditions: Homo sapiens, GCIY;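 further: growth inhibition of the human GCIY cell line, read out by a cell viability assay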
Description: SANGER: Inhibition of human GCIY cell growth in a cell viability assay.

Question: Which IC50 does the source give for COc1ccc(-c2cc3nccn3c(Nc3ncccc3C(N)=O)n2)cc1OC here?
Answer: The IC50 was greater than 8 µM.

system: LU-139; test: cells; assay type: functional, cell-based, Homo sapiens; conditions: Homo sapiens, LU-139
Description: SANGER: Inhibition of human LU-139 cell growth in a cell viability assay.

Question: For COc1ccc(-c2cc3nccn3c(Nc3ncccc3C(N)=O)n2)cc1OC, which IC50 is on record?
Answer: Its IC50 is greater than 8 µM.

system: NEC8; test: cells; assay type: functional, cell-based, Homo sapiens; conditions: Homo sapiens, NEC8;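 further: growth inhibition of human NEC8 cells, read out by a cell viability assay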
Description: SANGER: Inhibition of human NEC8 cell growth in a cell viability assay.

Question: With COc1ccc(-c2cc3nccn3c(Nc3ncccc3C(N)=O)n2)cc1OC as the molecule, how does the IC50 read?
Answer: The IC50 was 7.77 µM.

system: EKVX; test: cells; assay type: functional, cell-based, Homo sapiens; conditions: Homo sapiens, EKVX;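 further: growth inhibition of human EKVX cells, read out with a cell viability assay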
Description: SANGER: Inhibition of human EKVX cell growth in a cell viability assay.

Question: For COc1ccc(-c2cc3nccn3c(Nc3ncccc3C(N)=O)n2)cc1OC, which IC50 is on record?
Answer: Its IC50 is greater than 8 µM.

system: SW872; test: cells; assay type: functional, cell-based, Homo sapiens; conditions: Homo sapiens, SW872;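 further: growth inhibition of SW872 cells, read out by a viability assay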
Description: SANGER: Inhibition of human SW872 cell growth in a cell viability assay.

Question: For COc1ccc(-c2cc3nccn3c(Nc3ncccc3C(N)=O)n2)cc1OC, which IC50 is on record?
Answer: The IC50 was 1.18 µM.

system: TE-12; test: cells; assay type: functional, cell-based, Homo sapiens; conditions: Homo sapiens, TE-12;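 further: growth inhibition of TE-12 cells, read out by a cell viability assay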
Description: SANGER: Inhibition of human TE-12 cell growth in a cell viability assay.

Question: With COc1ccc(-c2cc3nccn3c(Nc3ncccc3C(N)=O)n2)cc1OC as the molecule, how does the IC50 read?
Answer: The IC50 was 0.531 µM.

system: HAL-01; test: cells; assay type: functional, cell-based, Homo sapiens; conditions: Homo sapiens, HAL-01;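 further: growth inhibition of human HAL-01 cells, read out with a cell viability assay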
Description: SANGER: Inhibition of human HAL-01 cell growth in a cell viability assay.

Question: For COc1ccc(-c2cc3nccn3c(Nc3ncccc3C(N)=O)n2)cc1OC, which IC50 is on record?
Answer: The IC50 was greater than 8 µM.

system: MFM-223; test: cells; assay type: functional, cell-based, Homo sapiens; conditions: Homo sapiens, MFM-223
Description: SANGER: Inhibition of human MFM-223 cell growth in a cell viability assay.

Question: COc1ccc(-c2cc3nccn3c(Nc3ncccc3C(N)=O)n2)cc1OC was tested. Which IC50 did it give?
Answer: The IC50 was greater than 8 µM.

system: COLO-829; test: cells; assay type: functional, cell-based, Homo sapiens; conditions: Homo sapiens, COLO-829
Description: SANGER: Inhibition of human COLO-829 cell growth in a cell viability assay.

Question: How did the IC50 turn out when COc1ccc(-c2cc3nccn3c(Nc3ncccc3C(N)=O)n2)cc1OC was run?
Answer: Its IC50 is greater than 8 µM.

system: COLO-668; test: cells; assay type: functional, cell-based, Homo sapiens; conditions: Homo sapiens, COLO-668
Description: SANGER: Inhibition of human COLO-668 cell growth in a cell viability assay.

Question: How did the IC50 turn out when COc1ccc(-c2cc3nccn3c(Nc3ncccc3C(N)=O)n2)cc1OC was run?
Answer: Its IC50 is greater than 8 µM.

system: SK-N-DZ; test: cells; assay type: functional, cell-based, Homo sapiens; conditions: Homo sapiens, SK-N-DZ; read-out: IC50;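 further: growth inhibition of the cancer cell line, read out through a viability assay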
Description: SANGER: Inhibition of human SK-N-DZ cell growth in a cell viability assay.

Question: COc1ccc(-c2cc3nccn3c(Nc3ncccc3C(N)=O)n2)cc1OC was tested. Which IC50 did it give?
Answer: The IC50 was greater than 8 µM.

system: CAS-1; test: cells; assay type: functional, cell-based, Homo sapiens; conditions: Homo sapiens, CAS-1;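 further: growth inhibition of CAS-1 cells, measured with a cell viability assay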
Description: SANGER: Inhibition of human CAS-1 cell growth in a cell viability assay.

Question: For COc1ccc(-c2cc3nccn3c(Nc3ncccc3C(N)=O)n2)cc1OC, which IC50 is on record?
Answer: The IC50 was 4.5 µM.

system: CW-2; test: cells; assay type: functional, cell-based, Homo sapiens; conditions: Homo sapiens, CW-2;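 further: growth inhibition of CW-2 cells, read out by a cell viability assay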
Description: SANGER: Inhibition of human CW-2 cell growth in a cell viability assay.

Question: For COc1ccc(-c2cc3nccn3c(Nc3ncccc3C(N)=O)n2)cc1OC, which IC50 is on record?
Answer: The IC50 was greater than 8 µM.

system: QIMR-WIL; test: cells; assay type: functional, cell-based, Homo sapiens; conditions: Homo sapiens, QIMR-WIL;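 further: growth inhibition of QIMR-WIL cells, read out with a cell viability assay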
Description: SANGER: Inhibition of human QIMR-WIL cell growth in a cell viability assay.

Question: With COc1ccc(-c2cc3nccn3c(Nc3ncccc3C(N)=O)n2)cc1OC as the molecule, how does the IC50 read?
Answer: The IC50 was 0.582 µM.

system: HCC1187; test: cells; assay type: functional, cell-based, Homo sapiens; conditions: Homo sapiens, HCC1187;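 further: growth inhibition of HCC1187 cells, read out with a cell viability assay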
Description: SANGER: Inhibition of human HCC1187 cell growth in a cell viability assay.

Question: How did the IC50 turn out when COc1ccc(-c2cc3nccn3c(Nc3ncccc3C(N)=O)n2)cc1OC was run?
Answer: Its IC50 is greater than 8 µM.

system: CTV-1; test: cells; assay type: functional, cell-based, Homo sapiens; conditions: Homo sapiens, CTV-1;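 further: growth inhibition of the cell line, read out with a cell viability assay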
Description: SANGER: Inhibition of human CTV-1 cell growth in a cell viability assay.

Question: Which IC50 does the source give for COc1ccc(-c2cc3nccn3c(Nc3ncccc3C(N)=O)n2)cc1OC here?
Answer: The IC50 was 1.5 µM.

system: K562; test: cells; assay type: functional, cell-based, Homo sapiens; conditions: Homo sapiens, K562
Description: SANGER: Inhibition of human K-562 cell growth in a cell viability assay.

Question: COc1ccc(-c2cc3nccn3c(Nc3ncccc3C(N)=O)n2)cc1OC was tested. Which IC50 did it give?
Answer: The IC50 was greater than 8 µM.

system: NB10; test: cells; assay type: functional, cell-based, Homo sapiens; conditions: Homo sapiens, NB10;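 further: growth inhibition of NB10 cells, read out by a cell viability assay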
Description: SANGER: Inhibition of human NB10 cell growth in a cell viability assay.

Question: Which IC50 does the source give for COc1ccc(-c2cc3nccn3c(Nc3ncccc3C(N)=O)n2)cc1OC here?
Answer: The IC50 was 5.3 µM.

system: BV-173; test: cells; assay type: functional, cell-based, Homo sapiens; conditions: Homo sapiens, BV-173
Description: SANGER: Inhibition of human BV-173 cell growth in a cell viability assay.

Question: COc1ccc(-c2cc3nccn3c(Nc3ncccc3C(N)=O)n2)cc1OC was tested. Which IC50 did it give?
Answer: The IC50 was greater than 8 µM.

system: COLO-800; test: cells; assay type: functional, cell-based, Homo sapiens; conditions: Homo sapiens, COLO-800;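 further: growth inhibition of COLO-800 cells, read out with a cell viability assay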
Description: SANGER: Inhibition of human COLO-800 cell growth in a cell viability assay.

Question: For COc1ccc(-c2cc3nccn3c(Nc3ncccc3C(N)=O)n2)cc1OC, which IC50 is on record?
Answer: The IC50 was greater than 8 µM.

system: EOL1; test: cells; assay type: functional, cell-based, Homo sapiens; conditions: Homo sapiens, EOL1;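 further: growth inhibition of EoL-1 cells, read out by a cell viability assay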
Description: SANGER: Inhibition of human EoL-1-cell cell growth in a cell viability assay.

Question: COc1ccc(-c2cc3nccn3c(Nc3ncccc3C(N)=O)n2)cc1OC was tested. Which IC50 did it give?
Answer: The IC50 was 0.333 µM.

system: ES7; test: cells; assay type: functional, cell-based, Homo sapiens; conditions: Homo sapiens, ES7;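 further: growth inhibition of cultured human ES7 cells, read out as cell viability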
Description: SANGER: Inhibition of human ES7 cell growth in a cell viability assay.

Question: Which IC50 does the source give for COc1ccc(-c2cc3nccn3c(Nc3ncccc3C(N)=O)n2)cc1OC here?
Answer: The IC50 was 1.09 µM.

system: A101D; test: cells; assay type: functional, cell-based, Homo sapiens; conditions: Homo sapiens, A101D;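 further: growth inhibition of the cell line, measured with a viability assay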
Description: SANGER: Inhibition of human A101D cell growth in a cell viability assay.

Question: How did the IC50 turn out when COc1ccc(-c2cc3nccn3c(Nc3ncccc3C(N)=O)n2)cc1OC was run?
Answer: Its IC50 is 4.87 µM.

system: NCI-H69; test: cells; assay type: functional, cell-based, Homo sapiens; conditions: Homo sapiens, NCI-H69;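 further: growth inhibition of the cell line, read out with a cell viability assay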
Description: SANGER: Inhibition of human NCI-H69 cell growth in a cell viability assay.

Question: Which IC50 does the source give for COc1ccc(-c2cc3nccn3c(Nc3ncccc3C(N)=O)n2)cc1OC here?
Answer: Its IC50 is greater than 8 µM.

system: U-87 MG; test: cells; assay type: functional, cell-based, Homo sapiens, U-87MG ATCC; conditions: Homo sapiens, U-87 MG;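 further: growth inhibition of the cells measured with a viability assay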
Description: SANGER: Inhibition of human U-87-MG cell growth in a cell viability assay.

Question: With COc1ccc(-c2cc3nccn3c(Nc3ncccc3C(N)=O)n2)cc1OC as the molecule, how does the IC50 read?
Answer: The IC50 was greater than 8 µM.

system: LB1047-RCC; test: cells; assay type: functional, cell-based, Homo sapiens; conditions: Homo sapiens, LB1047-RCC;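 further: inhibition of cell growth, determined with a cell viability assay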
Description: SANGER: Inhibition of human LB1047-RCC cell growth in a cell viability assay.

Question: For COc1ccc(-c2cc3nccn3c(Nc3ncccc3C(N)=O)n2)cc1OC, which IC50 is on record?
Answer: Its IC50 is 0.741 µM.

system: TE-8; test: cells; assay type: functional, cell-based, Homo sapiens; conditions: Homo sapiens, TE-8;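 further: growth inhibition of TE-8 cells, measured with a cell viability readout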
Description: SANGER: Inhibition of human TE-8 cell growth in a cell viability assay.

Question: Which IC50 does the source give for COc1ccc(-c2cc3nccn3c(Nc3ncccc3C(N)=O)n2)cc1OC here?
Answer: Its IC50 is 2.43 µM.

system: P30-OHK; test: cells; assay type: functional, cell-based, Homo sapiens; conditions: Homo sapiens, P30-OHK;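 further: growth inhibition of the P30-OHK cell line, read out with a cell viability assay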
Description: SANGER: Inhibition of human P30-OHK cell growth in a cell viability assay.

Question: COc1ccc(-c2cc3nccn3c(Nc3ncccc3C(N)=O)n2)cc1OC was tested. Which IC50 did it give?
Answer: The IC50 was 0.427 µM.

system: ATN-1; test: cells; assay type: functional, cell-based, Homo sapiens; conditions: Homo sapiens, ATN-1;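 further: growth inhibition of human ATN-1 cells, read out with a cell viability assay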
Description: SANGER: Inhibition of human ATN-1 cell growth in a cell viability assay.

Question: How did the IC50 turn out when COc1ccc(-c2cc3nccn3c(Nc3ncccc3C(N)=O)n2)cc1OC was run?
Answer: Its IC50 is greater than 8 µM.

system: NOMO-1; test: cells; assay type: functional, cell-based, Homo sapiens; conditions: Homo sapiens, NOMO-1;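 further: growth inhibition of human NOMO-1 cells measured by a cell viability assay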
Description: SANGER: Inhibition of human NOMO-1 cell growth in a cell viability assay.

Question: How did the IC50 turn out when COc1ccc(-c2cc3nccn3c(Nc3ncccc3C(N)=O)n2)cc1OC was run?
Answer: The IC50 was 7.38 µM.

system: NCI-H1355; test: cells; assay type: functional, cell-based, Homo sapiens; conditions: Homo sapiens, NCI-H1355;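 further: growth inhibition of human NCI-H1355 cells, read out by a cell viability assay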
Description: SANGER: Inhibition of human NCI-H1355 cell growth in a cell viability assay.

Question: With COc1ccc(-c2cc3nccn3c(Nc3ncccc3C(N)=O)n2)cc1OC as the molecule, how does the IC50 read?
Answer: The IC50 was 3.49 µM.

system: HCC2218; test: cells; assay type: functional, cell-based, Homo sapiens; conditions: Homo sapiens, HCC2218;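 further: cell viability assay read-out, with IC50 given as the concentration that inhibits growth of the cell line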
Description: SANGER: Inhibition of human HCC2218 cell growth in a cell viability assay.

Question: COc1ccc(-c2cc3nccn3c(Nc3ncccc3C(N)=O)n2)cc1OC was tested. Which IC50 did it give?
Answer: The IC50 was greater than 8 µM.

system: ETK-1; test: cells; assay type: functional, cell-based, Homo sapiens; conditions: Homo sapiens, ETK-1;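 further: growth inhibition of human ETK-1 cells, read out with a cell viability assay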
Description: SANGER: Inhibition of human ETK-1 cell growth in a cell viability assay.

Question: Which IC50 does the source give for COc1ccc(-c2cc3nccn3c(Nc3ncccc3C(N)=O)n2)cc1OC here?
Answer: Its IC50 is 5.21 µM.

system: LNCaP-Clone-FGC; test: cells; assay type: functional, cell-based, Homo sapiens; conditions: Homo sapiens, LNCaP-Clone-FGC
Description: SANGER: Inhibition of human LNCaP-Clone-FGC cell growth in a cell viability assay.

Question: Which IC50 does the source give for COc1ccc(-c2cc3nccn3c(Nc3ncccc3C(N)=O)n2)cc1OC here?
Answer: The IC50 was 2.18 µM.

system: RH-1; test: cells; assay type: functional, cell-based, Homo sapiens; conditions: Homo sapiens, RH-1;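 further: growth inhibition of human RH-1 cells, read out with a cell viability assay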
Description: SANGER: Inhibition of human RH-1 cell growth in a cell viability assay.

Question: How did the IC50 turn out when COc1ccc(-c2cc3nccn3c(Nc3ncccc3C(N)=O)n2)cc1OC was run?
Answer: Its IC50 is 4.67 µM.

system: MSTO-211H; test: cells; assay type: functional, cell-based, Homo sapiens; conditions: Homo sapiens, MSTO-211H
Description: SANGER: Inhibition of human MSTO-211H cell growth in a cell viability assay.

Question: How did the IC50 turn out when COc1ccc(-c2cc3nccn3c(Nc3ncccc3C(N)=O)n2)cc1OC was run?
Answer: Its IC50 is greater than 8 µM.

system: A4-Fuk; test: cells; assay type: functional, cell-based, Homo sapiens; conditions: Homo sapiens, A4-Fuk;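 further: growth inhibition of A4-Fuk cells, read out by a cell viability assay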
Description: SANGER: Inhibition of human A4-Fuk cell growth in a cell viability assay.

Question: With COc1ccc(-c2cc3nccn3c(Nc3ncccc3C(N)=O)n2)cc1OC as the molecule, how does the IC50 read?
Answer: Its IC50 is 1.81 µM.

system: RPMI-8226; test: cells; assay type: functional, cell-based, Homo sapiens; conditions: Homo sapiens, RPMI-8226
Description: SANGER: Inhibition of human RPMI-8226 cell growth in a cell viability assay.

Question: COc1ccc(-c2cc3nccn3c(Nc3ncccc3C(N)=O)n2)cc1OC was tested. Which IC50 did it give?
Answer: The IC50 was greater than 8 µM.

system: HEL; test: cells; assay type: functional, cell-based, Homo sapiens; conditions: Homo sapiens, HEL;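 further: growth inhibition of HEL cells, read out with a cell viability assay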
Description: SANGER: Inhibition of human HEL cell growth in a cell viability assay.

Question: With COc1ccc(-c2cc3nccn3c(Nc3ncccc3C(N)=O)n2)cc1OC as the molecule, how does the IC50 read?
Answer: The IC50 was 1.35 µM.
